These results are taken from ChEMBL document CHEMBL4765389, “Antimicrobial and anti-inflammatory activities of short dodecapeptides derived from duck cathelicidin: Plausible mechanism of bactericidal action and endotoxin neutralization” (Eur J Med Chem, 2020).

Active and inactive are the calls of the source. The calls are words filed in the database; no cut-off is given here.

As a reminder, the inhibition is how much of the control response was suppressed.

Series [1] relates to Staphylococcus aureus. Kind of series: Antibacterial activity against methicillin-resistant Staphylococcus aureus CCARM 3090 assessed as reduction in bacterial growth incubated for 24 hrs by CLSI based broth dilution method. Particulars: read-out: MIC100. Format: functional.
The subject of series [2] is Candida albicans. Kind of series: Antifungal activity against Candida albicans KCTC 7965 assessed as reduction in fungal growth incubated for 24 hrs by CLSI based broth dilution method. It counts as functional. The conditions noted are these: read-out: MIC100. For orientation: Dilution methods test growth across graded concentrations, often in twofold steps.
Series [3] is described as follows: Antibacterial activity against multidrug-resistant Pseudomonas aeruginosa CCARM 2109 assessed as reduction in bacterial growth incubated for 24 hrs by CLSI based broth dilution method. Particulars: read-out: MIC100. It counts as functional.
Another series relates to Pseudomonas aeruginosa. Kind of series: Antibacterial activity against Pseudomonas aeruginosa KCTC 1637 assessed as reduction in bacterial growth incubated for 24 hrs by CLSI based broth dilution method. Particulars: read-out: MIC100. It counts as functional.
Series [4] relates to Erythrocyte. Kind of series: Hemolytic activity in sheep RBC assessed as reduction in hemoglobin incubated for 1 hr. Format: ADME, cell-based, Ovis aries.
A short description of series [5]: Therapeutic index, ratio of HC10 for sheep RBC to geometric mean MIC for yeast. Format: toxicity. The conditions noted are these: sheep red blood cells, read-out: TI.
The nature of series [6]: Retention time of the compound by RP-HPLC method. Format: physicochemical.
Series [7] deals with RAW264.7. Kind of series: Antiinflammatory activity against mouse RAW264.7 cells assessed as reduction in LPS-induced nitrite level at 5 uM incubated for 24 hrs by Griess reagent based assay relative to control. Format: functional.
The next series concerns Saccharomyces cerevisiae. As to the kind of experiment: Antifungal activity against yeast assessed as reduction in fungal growth incubated for 24 hrs by CLSI based broth dilution method. Format: functional. The conditions noted are these: read-out: MIC100.
Series [8] is described as follows: Therapeutic index, ratio of HC10 for sheep RBC to geometric mean MIC for gram positive bacteria. Format: toxicity. Particulars: sheep red blood cells, read-out: TI.
Series [9] is described as follows: Cytotoxicity against mouse NIH/3T3 cells assessed as reduction in cell viability at 20 uM incubated for 24 hrs by MTT assay. The conditions noted are these: NIH/3T3 cells, read-out: INH. It counts as cell-based, NIH3T3. A general note: Tetrazolium dyes change colour on reduction, which living cells bring about.
Series [10] deals with Staphylococcus aureus. As to the kind of experiment: Antibacterial activity against methicillin-resistant Staphylococcus aureus CCARM 3095 assessed as reduction in bacterial growth incubated for 24 hrs by CLSI based broth dilution method. The conditions noted are these: read-out: MIC100. It counts as functional.
Series [11] concerns Candida albicans. As to the kind of experiment: Antifungal activity against Candida albicans KCTC 7121 assessed as reduction in fungal growth incubated for 24 hrs by CLSI based broth dilution method. Format: functional. Particulars: read-out: MIC100.
Series [12] relates to Bacteria. Kind of series: Antibacterial activity against Gram positive bacteria assessed as reduction in bacterial growth incubated for 24 hrs by CLSI based broth dilution method. Format: functional. Particulars: read-out: MIC100.
Series [13] deals with RAW264.7. Kind of series: Antiinflammatory activity against mouse RAW264.7 cells assessed as reduction in LPS-induced TNFalpha level at 10 uM incubated for 24 hrs by […] relative to control. It counts as functional. (Nitrite, measured by Griess reagent, commonly stands in for NO production.)
Series [14] deals with Escherichia coli. As to the kind of experiment: Antibacterial activity against Escherichia coli KCTC 1682 assessed as reduction in bacterial growth incubated for 24 hrs by CLSI based broth dilution method. Format: functional. Particulars: read-out: MIC100.
Series [15] has as its system Bacteria. As to the kind of experiment: Antibacterial activity against Gram negative bacteria assessed as reduction in bacterial growth incubated for 24 hrs by CLSI based broth dilution method. Format: functional. Particulars: read-out: MIC100.
The nature of series [16]: Therapeutic index, ratio of HC10 for sheep RBC to geometric mean MIC for gram negative bacteria. It counts as toxicity. The conditions noted are these: sheep red blood cells, read-out: TI.
The test system of another series is Enterococcus faecium. Kind of series: Antibacterial activity against vancomycin-resistant Enterococcus faecium ATCC 51559 assessed as reduction in bacterial growth incubated for 24 hrs by CLSI based broth dilution method. It counts as functional. Particulars: read-out: MIC100.
For series [17], the system named is Staphylococcus aureus. As to the kind of experiment: Antibacterial activity against Staphylococcus aureus KCTC 1621 assessed as reduction in bacterial growth incubated for 24 hrs by CLSI based broth dilution method. Particulars: read-out: MIC100. It counts as functional.
Series [18] in a line: Cytotoxicity against mouse RAW264.7 cells assessed as reduction in cell viability at 20 uM incubated for 24 hrs by MTT assay. It counts as cell-based. Particulars: read-out: INH.
Series [19] can be described thus: Antibacterial activity against multidrug-resistant Pseudomonas aeruginosa CCARM 2095 assessed as reduction in bacterial growth incubated for 24 hrs by CLSI based broth dilution method. It counts as functional. Particulars: read-out: MIC100.
In series [20] the test system is Staphylococcus epidermidis. As to the kind of experiment: Antibacterial activity against Staphylococcus epidermidis KCTC 1917 assessed as reduction in bacterial growth incubated for 24 hrs by CLSI based broth dilution method. The conditions noted are these: read-out: MIC100. It counts as functional.
For another series, the system named is Bacillus subtilis. As to the kind of experiment: Antibacterial activity against Bacillus subtilis KCTC 3068 assessed as reduction in bacterial growth incubated for 24 hrs by CLSI based broth dilution method. It counts as functional. Particulars: read-out: MIC100.
A further series relates to Salmonella typhimurium. Kind of series: Antibacterial activity against Salmonella typhimurium KCTC 1926 assessed as reduction in bacterial growth incubated for 24 hrs by CLSI based broth dilution method. Format: functional, Salmonella enterica subsp. enterica serovar Typhimurium. Particulars: Salmonella enterica, read-out: MIC100.
Series [21] concerns Erythrocyte. Kind of series: Hemolytic activity in sheep RBC assessed as reduction in hemoglobin at 256 uM incubated for 1 hr. Format: ADME, cell-based, Ovis aries.
Series [22] deals with Staphylococcus aureus. Kind of series: Antibacterial activity against methicillin-resistant Staphylococcus aureus CCARM 3089 assessed as reduction in bacterial growth incubated for 24 hrs by CLSI based broth dilution method. Particulars: read-out: MIC100. Format: functional.
Series [23] concerns Escherichia coli. Kind of series: Bacteriostatic activity against Escherichia coli KCTC 1682 assessed as reduction in colony forming unit at 0.5 times MIC measured for 24 hrs by time kill assay. It counts as functional.

Regarding H-LAKKIYRKWKRW-NH2, the MIC in the series with Staphylococcus aureus [1] amounted to 16 µM; in the series with Candida albicans [2], 8 µM; in [3], 8 µM; in the series on Pseudomonas aeruginosa, 4 µM; in the series on Saccharomyces cerevisiae, 8 µM; in the series on Staphylococcus aureus [10], 16 µM. For the same compound, the MIC in the series with Candida albicans [11] is 8 µM; in the series with Bacteria [12], 9.7 µM; in the series with Escherichia coli [14], 8 µM; with Bacteria [15], 7.6 µM; with Enterococcus faecium it was 8 µM; with Staphylococcus aureus [17], 4 µM. The MIC in series [19] was 16 µM; in [20], 4 µM; with Bacillus subtilis, 4 µM; with Salmonella typhimurium, 2 µM; in the series with Staphylococcus aureus [22], 16 µM. The HC10 in the series on Erythrocyte [4] was > 256 µM. For the same compound, the selectivity ratio in series [5] was 64; in series [8], 52.8; in series [16] it was 67.4. The Retention_time in series [6] is 15.1 min. Moreover, the inhibition at 5 µM in the series on RAW264.7 [7] was < 10%. In addition, the cytotoxicity at 24 h, 20 µM in series [9] and in series [18] was < 10% throughout. Also, in the series with RAW264.7 [13], the inhibition at 10 µM is < 10%. In addition, the Activity entry with Erythrocyte [21] is “Non-Toxic”.
Consider H-QLVPLAIKIYRAWKRR-NH2, for which the MIC with Staphylococcus aureus [1] came out at 16 µM; in the series with Candida albicans [2] it was 8 µM; in [3], 32 µM; in the series on Pseudomonas aeruginosa, 16 µM; with Saccharomyces cerevisiae, 12 µM; in the series on Staphylococcus aureus [10], 32 µM. Also, the MIC in the series on Candida albicans [11] was determined as 16 µM; in the series with Bacteria [12], 21.7 µM; in the series with Escherichia coli [14], 32 µM; with Bacteria [15], 25.6 µM; with Enterococcus faecium, 32 µM; with Staphylococcus aureus [17], 8 µM. Besides, the MIC turned out to be 32 µM in series [19]; 16 µM in series [20]; 16 µM with Bacillus subtilis; 16 µM in the series with Salmonella typhimurium; 32 µM in the series with Staphylococcus aureus [22]. Moreover, the HC10 in the series on Erythrocyte [4] was found to be 180 µM. Further, the selectivity ratio in series [5] turned out to be 15; in series [8], 8.3; in series [16] it was 7. In series [6], the Retention_time was found to be 24.1 min. The cytotoxicity at 24 h, 20 µM in series [9] was determined as 50%; in series [18], 35%. The Activity result in the series on Erythrocyte [21] is recorded as “Non-Toxic”.
On to H-LAKKIYRAWKRW-NH2, for which the MIC with Staphylococcus aureus [1] stood at 16 µM; in the series with Candida albicans [2] it was 8 µM; in series [3], 32 µM; in the series on Pseudomonas aeruginosa it was 4 µM; with Saccharomyces cerevisiae, 8 µM; in the series with Staphylococcus aureus [10], 16 µM. The MIC turned out to be 8 µM in the series on Candida albicans [11]; 13.7 µM with Bacteria [12]; 16 µM in the series with Escherichia coli [14]; 14 µM with Bacteria [15]; 16 µM with Enterococcus faecium; 4 µM with Staphylococcus aureus [17]. Further, the MIC in [19] came out at 16 µM; in series [20], 8 µM; in the series with Bacillus subtilis it was 4 µM; in the series with Salmonella typhimurium it was 2 µM; in the series with Staphylococcus aureus [22], 32 µM. Also, in the series on Erythrocyte [4], the HC10 was > 256 µM. The selectivity ratio in series [5] is 64; in [8] it was 37.4; in [16], 36.6. The compound also yielded a Retention_time in series [6] of 17.1 min. For the same compound, in the series with RAW264.7 [7], the inhibition at 5 µM is < 10%. Besides, the cytotoxicity at 24 h, 20 µM in series [9] and in [18] was < 10% throughout. The inhibition at 10 µM with RAW264.7 [13] was < 10%. Also, the Activity entry in the series with Erythrocyte [21] is recorded as “Non-Toxic”.
Turning to H-VPLAIKIYRAWKRR-NH2, the MIC in the series on Staphylococcus aureus [1] was 32 µM; in the series on Candida albicans [2], 16 µM; in series [3], 32 µM; with Pseudomonas aeruginosa, 8 µM; in the series with Saccharomyces cerevisiae, 16 µM; in the series on Staphylococcus aureus [10] it was 32 µM. The MIC was found to be 16 µM in the series on Candida albicans [11]; 20 µM in the series on Bacteria [12]; 16 µM with Escherichia coli [14]; 19.2 µM in the series with Bacteria [15]; 16 µM in the series on Enterococcus faecium; 8 µM in the series on Staphylococcus aureus [17]. For the same compound, the MIC was 32 µM in series [19]; 16 µM in [20]; 4 µM with Bacillus subtilis; 8 µM in the series on Salmonella typhimurium; 32 µM with Staphylococcus aureus [22]. Also, the HC10 with Erythrocyte [4] is > 256 µM. In addition, the selectivity ratio stood at 32 in series [5], 25.6 in series [8] and 26.7 in series [16]. Further, the Retention_time in [6] stood at 21.7 min. Besides, the cytotoxicity at 24 h, 20 µM in [9] and in series [18] was < 10% in each case. For the same compound, the Activity result with Erythrocyte [21] is “Non-Toxic”.
Turning to `CCn1cc(C(=O)O)c(=O)c2ccc(C)nc21`, the result in the series with Escherichia coli [23] was inactive.
Turning to H-LAKKIYRAWKRR-NH2, the MIC was determined as 16 µM with Staphylococcus aureus [1]; 8 µM in the series with Candida albicans [2]; 32 µM in [3]; 4 µM in the series on Pseudomonas aeruginosa; 8 µM in the series with Saccharomyces cerevisiae; 16 µM in the series with Staphylococcus aureus [10]. Moreover, the MIC was 8 µM in the series on Candida albicans [11]; 14.2 µM in the series with Bacteria [12]; 8 µM in the series on Escherichia coli [14]; 16 µM in the series on Bacteria [15]; 16 µM with Enterococcus faecium; 4 µM in the series with Staphylococcus aureus [17]. The MIC was 32 µM in [19]; 8 µM in series [20]; 8 µM in the series on Bacillus subtilis; 4 µM in the series with Salmonella typhimurium; 32 µM with Staphylococcus aureus [22]. In addition, the HC10 with Erythrocyte [4] was > 256 µM. Further, the selectivity ratio amounted to 64 in series [5], 36.1 in [8] and 32 in series [16]. For the same compound, the Retention_time in series [6] is listed as 14.1 min. Moreover, the inhibition at 5 µM with RAW264.7 [7] was < 10%. Moreover, the cytotoxicity at 24 h, 20 µM in series [9] and in series [18] was < 10% throughout. For the same compound, the inhibition at 10 µM in the series with RAW264.7 [13] was < 10%. The Activity result with Erythrocyte [21] is recorded as “Non-Toxic”.
